Assay results published in the supplement of paper PMC10307832.

Experiments:
Test in all cases: relative viability (nuclei count vs DMSO), 5 days (fraction); higher = more cells survive
[1] = compound: CC1CC(=O)N(C2=CN=C(N=C2N1C3CCCC3)NC4=C(C=C(C=C4)C(=O)NC5CCN(CC5)C)OC)C [NPK76-II-72-1] + COc1cc2c(Oc3ccc(NC(=O)C4(C(=O)Nc5ccc(F)cc5)CC4)cc3F)ccnc2cc1OCCCN1CCOCC1 [Foretinib] (partner 0.25 µM)
How it was run: (§1)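 Values are medians from duplicate plates. Each reflects relative viability, defined as the nuclei count of treated wells over that of vehicle wells. Lung cancer cell lines in 1536-well plates were pin-tool dosed one day after seeding with one drug alone or with a fixed anchor-drug dose plus five library-drug doses (not always all listed) in √10 steps, then fixed, stained and imaged at 4× after 5 days.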

[2] = compound: CC1CC(=O)N(C2=CN=C(N=C2N1C3CCCC3)NC4=C(C=C(C=C4)C(=O)NC5CCN(CC5)C)OC)C [NPK76-II-72-1] + C[C@@H](Oc1cc(-c2cnn(C3CCNCC3)c2)cnc1N)c1c(Cl)ccc(F)c1Cl [Crizotinib] (partner 1 µM)
How it was run: as §1

[3] = compound: CC1CC(=O)N(C2=CN=C(N=C2N1C3CCCC3)NC4=C(C=C(C=C4)C(=O)NC5CCN(CC5)C)OC)C [NPK76-II-72-1] + C[C@]1(O)C[C@@H](c2nc(-c3ccc4ccc(-c5ccccc5)nc4c3)c3c(N)nccn32)C1 [Linsitinib] (partner 1 µM)
How it was run: as §1

BI-2536 + Pictilisib = compound: CC[C@@H]1C(=O)N(C)c2cnc(Nc3ccc(C(=O)NC4CCN(C)CC4)cc3OC)nc2N1C1CCCC1 [BI-2536] + CS(=O)(=O)N1CCN(Cc2cc3nc(-c4cccc5[nH]ncc45)nc(N4CCOCC4)c3s2)CC1 [Pictilisib] (partner 1 µM)
How it was run: as §1

HCC-827
relative viability ([1]; first compound 0.01 µM): 1.01 | relative viability ([1]; first compound 0.03162 µM): 1.06 | relative viability ([1]; first compound 0.1 µM): 0.912 | relative viability ([1]; first compound 0.3162 µM): 1.03 | relative viability ([1]; first compound 1 µM): 1.12 | relative viability ([2]; first compound 0.01 µM): 1.01 | relative viability ([2]; first compound 0.03162 µM): 0.912 | relative viability ([2]; first compound 0.1 µM): 0.902 | relative viability ([2]; first compound 0.3162 µM): 0.895 | relative viability ([2]; first compound 1 µM): 0.892 | relative viability ([3]; first compound 0.01 µM): 0.891 | relative viability ([3]; first compound 0.03162 µM): 0.91 | relative viability ([3]; first compound 0.1 µM): 0.939 | relative viability ([3]; first compound 0.3162 µM): 0.855 | relative viability ([3]; first compound 1 µM): 1.01 | relative viability (BI-2536 + Pictilisib; first compound 0.01 µM): 0.917 | relative viability (BI-2536 + Pictilisib; first compound 0.03162 µM): 1.02 | relative viability (BI-2536 + Pictilisib; first compound 0.1 µM): 0.976 | relative viability (BI-2536 + Pictilisib; first compound 0.3162 µM): 0.533 | relative viability (BI-2536 + Pictilisib; first compound 1 µM): 0.339

SK-LU-1
relative viability ([1]; first compound 0.01 µM): 0.814 | relative viability ([1]; first compound 0.03162 µM): 0.83 | relative viability ([1]; first compound 0.1 µM): 0.879 | relative viability ([1]; first compound 0.3162 µM): 0.833 | relative viability ([1]; first compound 1 µM): 0.893 | relative viability ([2]; first compound 0.01 µM): 0.812 | relative viability ([2]; first compound 0.03162 µM): 1.07 | relative viability ([2]; first compound 0.1 µM): 0.93 | relative viability ([2]; first compound 0.3162 µM): 0.859 | relative viability ([2]; first compound 1 µM): 0.981 | relative viability ([3]; first compound 0.01 µM): 1.07 | relative viability ([3]; first compound 0.03162 µM): 1.09 | relative viability ([3]; first compound 0.1 µM): 1.16 | relative viability ([3]; first compound 0.3162 µM): 1.02 | relative viability ([3]; first compound 1 µM): 1.33 | relative viability (BI-2536 + Pictilisib; first compound 0.01 µM): 0.499 | relative viability (BI-2536 + Pictilisib; first compound 0.03162 µM): 0.62 | relative viability (BI-2536 + Pictilisib; first compound 0.1 µM): 0.42 | relative viability (BI-2536 + Pictilisib; first compound 0.3162 µM): 0.201 | relative viability (BI-2536 + Pictilisib; first compound 1 µM): 0.157

NCI-H1975
relative viability ([1]; first compound 0.01 µM): 1.01 | relative viability ([1]; first compound 0.03162 µM): 0.981 | relative viability ([1]; first compound 0.1 µM): 0.826 | relative viability ([1]; first compound 0.3162 µM): 0.929 | relative viability ([1]; first compound 1 µM): 0.943 | relative viability ([2]; first compound 0.01 µM): 0.939 | relative viability ([2]; first compound 0.03162 µM): 0.965 | relative viability ([2]; first compound 0.1 µM): 0.914 | relative viability ([2]; first compound 0.3162 µM): 0.876 | relative viability ([2]; first compound 1 µM): 0.95 | relative viability ([3]; first compound 0.01 µM): 0.956 | relative viability ([3]; first compound 0.03162 µM): 0.921 | relative viability ([3]; first compound 0.1 µM): 0.913 | relative viability ([3]; first compound 0.3162 µM): 1.01 | relative viability ([3]; first compound 1 µM): 1.03 | relative viability (BI-2536 + Pictilisib; first compound 0.01 µM): 0.27 | relative viability (BI-2536 + Pictilisib; first compound 0.03162 µM): 0.284 | relative viability (BI-2536 + Pictilisib; first compound 0.1 µM): 0.24 | relative viability (BI-2536 + Pictilisib; first compound 0.3162 µM): 0.117 | relative viability (BI-2536 + Pictilisib; first compound 1 µM): 0.135

NCI-H1703
relative viability ([1]; first compound 0.01 µM): 0.363 | relative viability ([1]; first compound 0.1 µM): 0.316 | relative viability ([1]; first compound 0.3162 µM): 0.35 | relative viability ([1]; first compound 1 µM): 0.343 | relative viability ([2]; first compound 0.01 µM): 0.525 | relative viability ([2]; first compound 0.03162 µM): 0.754 | relative viability ([2]; first compound 0.1 µM): 0.774 | relative viability ([2]; first compound 0.3162 µM): 0.641 | relative viability ([2]; first compound 1 µM): 0.628 | relative viability ([3]; first compound 0.01 µM): 0.428 | relative viability ([3]; first compound 0.03162 µM): 0.65 | relative viability ([3]; first compound 0.1 µM): 0.621 | relative viability ([3]; first compound 0.3162 µM): 0.645 | relative viability ([3]; first compound 1 µM): 0.996 | relative viability (BI-2536 + Pictilisib; first compound 0.01 µM): 0.244 | relative viability (BI-2536 + Pictilisib; first compound 0.03162 µM): 0.239 | relative viability (BI-2536 + Pictilisib; first compound 0.1 µM): 0.137 | relative viability (BI-2536 + Pictilisib; first compound 0.3162 µM): 0.174 | relative viability (BI-2536 + Pictilisib; first compound 1 µM): 0.131

NCI-H1651
relative viability ([1]; first compound 0.01 µM): 0.811 | relative viability ([1]; first compound 0.03162 µM): 0.826 | relative viability ([1]; first compound 0.1 µM): 0.825 | relative viability ([1]; first compound 0.3162 µM): 0.74 | relative viability ([1]; first compound 1 µM): 0.953 | relative viability ([2]; first compound 0.01 µM): 0.885 | relative viability ([2]; first compound 0.03162 µM): 0.881 | relative viability ([2]; first compound 0.1 µM): 0.871 | relative viability ([2]; first compound 0.3162 µM): 0.881 | relative viability ([2]; first compound 1 µM): 0.868 | relative viability ([3]; first compound 0.01 µM): 0.947 | relative viability ([3]; first compound 0.03162 µM): 0.972 | relative viability ([3]; first compound 0.1 µM): 1.09 | relative viability ([3]; first compound 0.3162 µM): 0.867 | relative viability ([3]; first compound 1 µM): 1.05 | relative viability (BI-2536 + Pictilisib; first compound 0.01 µM): 0.524 | relative viability (BI-2536 + Pictilisib; first compound 0.03162 µM): 0.372 | relative viability (BI-2536 + Pictilisib; first compound 0.1 µM): 0.488 | relative viability (BI-2536 + Pictilisib; first compound 0.3162 µM): 0.0623 | relative viability (BI-2536 + Pictilisib; first compound 1 µM): 0.055

NCI-H441
relative viability ([1]; first compound 0.01 µM): 0.931 | relative viability ([1]; first compound 0.03162 µM): 1.09 | relative viability ([1]; first compound 0.1 µM): 0.785 | relative viability ([1]; first compound 0.3162 µM): 0.823 | relative viability ([1]; first compound 1 µM): 1.16 | relative viability ([2]; first compound 0.01 µM): 0.928 | relative viability ([2]; first compound 0.03162 µM): 0.692 | relative viability ([2]; first compound 0.1 µM): 0.505 | relative viability ([2]; first compound 0.3162 µM): 0.7 | relative viability ([2]; first compound 1 µM): 0.699 | relative viability ([3]; first compound 0.01 µM): 0.479 | relative viability ([3]; first compound 0.03162 µM): 0.696 | relative viability ([3]; first compound 0.1 µM): 0.492 | relative viability ([3]; first compound 0.3162 µM): 0.265 | relative viability ([3]; first compound 1 µM): 0.65 | relative viability (BI-2536 + Pictilisib; first compound 0.01 µM): 0.464 | relative viability (BI-2536 + Pictilisib; first compound 0.03162 µM): 0.211 | relative viability (BI-2536 + Pictilisib; first compound 0.1 µM): 0.138 | relative viability (BI-2536 + Pictilisib; first compound 0.3162 µM): 0.17 | relative viability (BI-2536 + Pictilisib; first compound 1 µM): 0.117
